Laboratory results published in paper PMC9154192 (PLoS Biology, 2022).
Converted amounts (≈) assume the structure as drawn. “And” between values parts separate entries of the source, which are not always exact repeats. Identical values can stand only once. Like-named read-outs stand apart in the source and are kept apart here.

Experiments:
M. aubagnense = test: microbe, parasite or virus in culture; type: cell-based, Mycobacterium aubagnense; details: Mycolicibacterium aubagnense
M. bovis = test: microbe, parasite or virus in culture; type: cell-based; details: Mycobacterium tuberculosis variant bovis
M. conceptionense = test: microbe, parasite or virus in culture; type: cell-based, Mycobacterium conceptionense; details: Mycolicibacterium senegalense
M. intracellulare = test: microbe, parasite or virus in culture; type: cell-based; details: Mycobacterium intracellulare
M. phocaicum = test: microbe, parasite or virus in culture; type: cell-based, Mycobacterium phocaicum; details: Mycolicibacterium phocaicum
Candida albicans = test: Broth dilution MIC (CLSI); type: cell-based
Text: (§1) Bacteria (Acinetobacter baumannii NCCP 14782, Citrobacter freundii NCCP 14766, Enterobacter aerogenes NCCP 14761, Escherichia coli NCCP 14762, Escherichia coli O157 NCCP 14541, Klebsiella pneumoniae NCCP 14764, Proteus mirabilis NCCP 14763, Proteus vulgaris NCCP 14765, Pseudomonas aeruginosa NCCP 14781, Salmonella Enteritidis NCCP 14771, Salmonella Paratyphi A NCCP 14759, Salmonella Typhimurium NCCP 16207, Serratia marcescens NCCP 14770, Shigella boydii NCCP 14745, Shigella dysenteriae NCCP 14746, Shigella flexneri NCCP 14744, Shigella sonnei NCCP 14773, Bacillus subtilis NCCP 11101, Corynebacterium diphtheriae NCCP 10353, Staphylococcus aureus MSSA NCCP 14780, Staphylococcus aureus MRSA NCCP 14769, Staphylococcus epidermidis NCCP 14768, Streptococcus pneumoniae NCCP 14774) and fungi (Aspergillus fumigatus NCCP 22454, Candida albicans NCCP 32557, Cryptococcus neoformans NCCP 32559, Microsporum canis NCCP 22454, Rhizopus oryzae NCCP 22458, Saccharomyces cerevisiae NCCP 32558, Trichophyton rubrum NCCP 22456) strains were obtained from the National Culture Collection for Pathogens (NCCP) (Chungbuk, Korea). The MIC of each agent was determined following the Clinical and Laboratory Standards Institute (CLSI).[40]

[1] = tested on: Corynebacterium diphtheriae; test: Broth dilution MIC (CLSI); type: cell-based
Text: as §1

Cryptococcus neoformans = test: Broth dilution MIC (CLSI); type: cell-based
Text: as §1

Proteus mirabilis = test: Broth dilution MIC (CLSI); type: cell-based
Text: as §1

Pseudomonas aeruginosa = test: Broth dilution MIC (CLSI); type: cell-based
Text: as §1

Salmonella Typhimurium = test: Broth dilution MIC (CLSI); type: cell-based; details: Salmonella enterica
Text: as §1

Serratia marcescens = test: Broth dilution MIC (CLSI); type: cell-based
Text: as §1

Shigella boydii = test: Broth dilution MIC (CLSI); type: cell-based
Text: as §1

Shigella flexneri = test: Broth dilution MIC (CLSI); type: cell-based
Text: as §1

[2] = tested on: Staphylococcus aureus, MRSA; test: Broth dilution MIC (CLSI); type: cell-based
Text: as §1

[3] = tested on: Staphylococcus epidermidis; test: Broth dilution MIC (CLSI); type: cell-based
Text: as §1

Trichophyton rubrum = test: Broth dilution MIC (CLSI); type: cell-based
Text: as §1

M. tuberculosis H37Ra = test: microbe, parasite or virus in culture; type: cell-based, Mycobacterium tuberculosis; details: Mycobacterium tuberculosis, H37RA
[4] = tested on: XDR M. tuberculosis (KMRC 00203–00197); type: cell-based, Mycobacterium tuberculosis; details: for log reduction (CFU): 7 days
in vitro [5] = type: cell-based; details: human
Experimental: (§2) A549 human pulmonary epithelial cells (KCLB 10185), human embryonic kidney (HEK) 293 cells (KCLB 21573), human THP-1 leukemia cells (KCLB 40202), human neuroblastoma SH-SY5Y cells (KCLB 22266), Murine Raw 264.7 macrophages (KCLB 40071), and L929 murine fibroblasts (KCLB 10001) were purchased from the KCLB (Seoul, Korea). Cytotoxicity testing was performed using the MTT assay and the WST-1 cell viability assay as previously described.

in vitro [6] = type: cell-based, murine; details: mouse
Experimental: as §2

XDR M. tuberculosis = test: Luminescence-based microbial cell viability assay; parameters: species or system Mycobacterium tuberculosis
M. tuberculosis H37Rv = type: cell-based, Mycobacterium tuberculosis; details: H37Rv
[7] = Salmonella Typhimurium, read-out: MIC

SMILES | MIC (M. aubagnense) | MIC (M. bovis) | MIC (M. conceptionense) | MIC (M. intracellulare) | MIC (M. phocaicum) | MIC (Candida albicans; read-out: MIC) | MIC ([1]; read-out: MIC) | MIC (Cryptococcus neoformans; read-out: MIC) | MIC (Proteus mirabilis; read-out: MIC) | MIC (Pseudomonas aeruginosa; read-out: MIC) | MIC (Salmonella Typhimurium; [7]) | MIC (Serratia marcescens; read-out: MIC) | MIC (Shigella boydii; read-out: MIC) | MIC (Shigella flexneri; read-out: MIC) | MIC ([2]; read-out: MIC) | MIC ([3]; read-out: MIC) | MIC (Trichophyton rubrum; read-out: MIC) | CFU (replicates1-3), single values [4] | CC50 (in vitro [5]; A549) | CC50 (in vitro [5]; HEK-293) | other results
[H]/N=C(/N)N[C@H]1[C@H](O)[C@@H](O)[C@H](O[C@@H]2O[C@@H](C)[C@](O)(C=O)[C@H]2O[C@@H]2O[C@@H](CO)[C@H](O)[C@@H](O)[C@@H]2NC)[C@@H](N/C(N)=N\[H])[C@@H]1O [STR, streptomycin] | > 100 µg/mL | 0.4 µg/mL (≈ 0.688 µM) | 3.1 µg/mL (≈ 5.33 µM) | 0.8 µg/mL (≈ 1.38 µM) | 6.3 µg/mL (≈ 10.8 µM) | > 100 µg/mL | 3.1 µg/mL (≈ 5.33 µM) | > 100 µg/mL | 6.3 µg/mL (≈ 10.8 µM) | 25 µg/mL (≈ 43 µM) | 25 µg/mL (≈ 43 µM) | 50 µg/mL (≈ 86 µM) | 25 µg/mL (≈ 43 µM) | 25 µg/mL (≈ 43 µM) | 3.1 µg/mL (≈ 5.33 µM) | 1.6 µg/mL (≈ 2.75 µM) | > 100 µg/mL |  |  |  | 
COC(=O)[C@@H]1CCC(=O)N1Cc1cc2ccc(OCc3ccccc3)cc2c2cc(OC)c(OC)cc12 [PP3S, Methyl (S)-1-{[3-(Benzyloxy)-6,7-dimethoxy-9-phenanthryl]methyl}-5-oxopyrrolidine-2-carboxylate] | > 100 µg/mL | 3.12 µg/mL (≈ 6.25 µM) | > 100 µg/mL | > 100 µg/mL | > 100 µg/mL | > 100 µg/mL | > 100 µg/mL | > 100 µg/mL | > 100 µg/mL | > 100 µg/mL | > 100 µg/mL | > 100 µg/mL | > 100 µg/mL | > 100 µg/mL | > 100 µg/mL | > 100 µg/mL | > 100 µg/mL | 41000 CFU and 66100 CFU and 72200 CFU and 71300 CFU and 95100 CFU and 88700 CFU and 98900 CFU and 41200 CFU and 40500 CFU and 105000 CFU and 75800 CFU and 72700 CFU and 52300 CFU and 61000 CFU and 63200 CFU and 62900 CFU and 137000 CFU and 98200 CFU | > 500 µg/mL | 7.8 µg/mL (≈ 15.6 µM) | MIC (M. tuberculosis H37Ra): 1.6 µg/mL (≈ 3.2 µM); CFU (log) [4]: 4.83 and 4.91; log reduction (CFU) ([4]; at 0.8 μg/ml): 0.5; log reduction (CFU) ([4]; at 1.6 μg/ml): 0.6; CC50 (in vitro [5]; SH-SY5Y): 7.8 µg/mL (≈ 15.6 µM); CC50 (in vitro [5]; THP-1): > 500 µg/mL; CC50 (in vitro [6]; L929): > 500 µg/mL; CC50 (in vitro [6]; Raw264.7): > 500 µg/mL
NNC(=O)c1ccncc1 [INH, isoniazid, reference compound] | > 100 µg/mL | 0.2 µg/mL (≈ 1.46 µM) | 25 µg/mL (≈ 182 µM) | 25 µg/mL (≈ 182 µM) | > 100 µg/mL | > 100 µg/mL | > 100 µg/mL | > 100 µg/mL | > 100 µg/mL | > 100 µg/mL | > 100 µg/mL | > 100 µg/mL | > 100 µg/mL | > 100 µg/mL | > 100 µg/mL | > 100 µg/mL | > 100 µg/mL | 6900 CFU and 40600 CFU and 43800 CFU and 52100 CFU and 37500 CFU and 35600 CFU and 31700 CFU and 15100 CFU and 27000 CFU and 106000 CFU and 157000 CFU and 148000 CFU and 98000 CFU and 61800 CFU and 75500 CFU and 71000 CFU and 87000 CFU and 97000 CFU | > 500 µg/mL | > 500 µg/mL | log reduction (CFU) ([4]; at 12.5 μg/ml): 1.0; RLU/50ul (replicates1-3), single values (XDR M. tuberculosis): 190 RLU/50ul and 260 RLU/50ul (2×) and 250 RLU/50ul and 280 RLU/50ul and 160 RLU/50ul (2×) and 150 RLU/50ul and 170 RLU/50ul and 540 RLU/50ul (2×) and 630 RLU/50ul (2×) and 530 RLU/50ul and 620 RLU/50ul and 670 RLU/50ul (2×) and 580 RLU/50ul and 690 RLU/50ul and 830 RLU/50ul (2×) and 790 RLU/50ul and 800 RLU/50ul and 880 RLU/50ul and 870 RLU/50ul and 750 RLU/50ul (2×); antitubercular effect (XDR M. tuberculosis): did not show a significant antitubercular effect; CFU/ml (average) (M. tuberculosis H37Rv; Fig 3A, drug conc. 12.5): 2420 CFU/ml; Intracellular M. tuberculosis, % (Drug Free = 100.0) (M. tuberculosis H37Rv; Fig 3A, drug conc. 12.5): 7.2%; CFU/ml (average) (M. tuberculosis H37Rv; Fig 3A, drug conc. 25): 203 CFU/ml; Intracellular M. tuberculosis, % (Drug Free = 100.0) (M. tuberculosis H37Rv; Fig 3A, drug conc. 25): 0.6%; CFU/ml (average) (M. tuberculosis H37Rv; Fig 3B, drug conc. 12.5): 2120 CFU/ml; Intracellular M. tuberculosis, % (Drug Free = 100.0) (M. tuberculosis H37Rv; Fig 3B, drug conc. 12.5): 6.3%; CFU/ml (average) (M. tuberculosis H37Rv; Fig 3B, drug conc. 25): 133 CFU/ml; Intracellular M. tuberculosis, % (Drug Free = 100.0) (M. tuberculosis H37Rv; Fig 3B, drug conc. 25): 0.4%; CC50 (in vitro [5]; SH-SY5Y): > 500 µg/mL; CC50 (in vitro [5]; THP-1): > 500 µg/mL; CC50 (in vitro [6]; L929): > 500 µg/mL; CC50 (in vitro [6]; Raw264.7): > 500 µg/mL
CO[C@H]1/C=C/O[C@@]2(C)Oc3c(C)c(O)c4c(O)c(c(/C=N/N5CCN(C)CC5)c(O)c4c3C2=O)NC(=O)/C(C)=C\C=C\[C@H](C)[C@H](O)[C@@H](C)[C@@H](O)[C@@H](C)[C@H](OC(C)=O)[C@@H]1C [RIF, rifampicin, reference compound] | 1.6 µg/mL (≈ 1.94 µM) | 0.1 µg/mL (≈ 0.122 µM) | 25 µg/mL (≈ 30.4 µM) | < 0.1 µg/mL | 25 µg/mL (≈ 30.4 µM) |  |  |  |  |  |  |  |  |  |  |  |  | 56400 CFU and 14000 CFU and 26700 CFU and 25200 CFU and 51000 CFU and 59000 CFU and 55000 CFU and 48000 CFU and 53000 CFU and 44900 CFU and 67000 CFU (2×) and 75100 CFU and 66500 CFU and 63000 CFU and 65000 CFU and 35000 CFU and 41000 CFU | > 500 µg/mL | > 500 µg/mL | CFU (log) [4]: 4.63 and 4.77; log reduction (CFU) ([4]; at 12.5 μg/ml): 0.6; CC50 (in vitro [5]; SH-SY5Y): > 500 µg/mL; CC50 (in vitro [5]; THP-1): > 500 µg/mL; CC50 (in vitro [6]; L929): > 500 µg/mL; CC50 (in vitro [6]; Raw264.7): > 500 µg/mL; MIC (Candida albicans): > 100 µg/mL; MIC [1]: 0.05 µg/mL (≈ 0.0608 µM); MIC (Cryptococcus neoformans): > 100 µg/mL; MIC (Proteus mirabilis): 3.1 µg/mL (≈ 3.77 µM); MIC (Pseudomonas aeruginosa): 25 µg/mL (≈ 30.4 µM); MIC (Salmonella Typhimurium; TYPHIMURIUM): 12.5 µg/mL (≈ 15.2 µM); MIC (Serratia marcescens): 12.5 µg/mL (≈ 15.2 µM); MIC (Shigella boydii): 0.4 µg/mL (≈ 0.486 µM); MIC (Shigella flexneri): 1.5 µg/mL (≈ 1.82 µM); MIC [2]: 0.05 µg/mL (≈ 0.0608 µM); MIC [3]: 0.05 µg/mL (≈ 0.0608 µM); MIC (Trichophyton rubrum): > 100 µg/mL
